Experimental data reported in patent US8642592B2, “Oxo-heterocyclically substituted alkyl carboxylic acids and use thereof” (Bayer Intellectual Property GmbH, priority 2009, dated 2014).

Columns and labels:
Format in all cases: biochemical
[1] = biological target: T1, soluble guanylate cyclase (sGC) (Rattus norvegicus, UniProt P20595); assay: Stimulation of sGC enzyme activity (PPi/luciferase detection); conditions: sGC enzyme in vitro
T1 construct: made in house; host or cells: baculovirus/Sf9 insect cells
T1 sequence (P20595 1-619): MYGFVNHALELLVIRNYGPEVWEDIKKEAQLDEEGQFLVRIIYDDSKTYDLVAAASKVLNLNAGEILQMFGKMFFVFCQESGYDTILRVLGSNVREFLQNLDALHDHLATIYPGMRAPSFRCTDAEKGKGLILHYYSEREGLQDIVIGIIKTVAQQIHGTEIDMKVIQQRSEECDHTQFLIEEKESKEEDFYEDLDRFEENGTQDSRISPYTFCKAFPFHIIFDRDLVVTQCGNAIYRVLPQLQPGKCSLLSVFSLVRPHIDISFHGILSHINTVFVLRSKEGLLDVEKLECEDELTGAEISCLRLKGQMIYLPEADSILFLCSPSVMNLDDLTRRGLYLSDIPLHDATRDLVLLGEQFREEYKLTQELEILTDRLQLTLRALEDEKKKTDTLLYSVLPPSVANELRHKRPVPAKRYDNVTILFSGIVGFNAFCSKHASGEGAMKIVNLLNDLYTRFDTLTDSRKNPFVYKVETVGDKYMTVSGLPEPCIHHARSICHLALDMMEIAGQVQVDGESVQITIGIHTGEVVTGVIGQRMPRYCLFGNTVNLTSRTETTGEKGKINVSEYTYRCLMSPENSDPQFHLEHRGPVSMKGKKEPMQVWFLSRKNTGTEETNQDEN
T1 sequence (P19686 1-690 partner): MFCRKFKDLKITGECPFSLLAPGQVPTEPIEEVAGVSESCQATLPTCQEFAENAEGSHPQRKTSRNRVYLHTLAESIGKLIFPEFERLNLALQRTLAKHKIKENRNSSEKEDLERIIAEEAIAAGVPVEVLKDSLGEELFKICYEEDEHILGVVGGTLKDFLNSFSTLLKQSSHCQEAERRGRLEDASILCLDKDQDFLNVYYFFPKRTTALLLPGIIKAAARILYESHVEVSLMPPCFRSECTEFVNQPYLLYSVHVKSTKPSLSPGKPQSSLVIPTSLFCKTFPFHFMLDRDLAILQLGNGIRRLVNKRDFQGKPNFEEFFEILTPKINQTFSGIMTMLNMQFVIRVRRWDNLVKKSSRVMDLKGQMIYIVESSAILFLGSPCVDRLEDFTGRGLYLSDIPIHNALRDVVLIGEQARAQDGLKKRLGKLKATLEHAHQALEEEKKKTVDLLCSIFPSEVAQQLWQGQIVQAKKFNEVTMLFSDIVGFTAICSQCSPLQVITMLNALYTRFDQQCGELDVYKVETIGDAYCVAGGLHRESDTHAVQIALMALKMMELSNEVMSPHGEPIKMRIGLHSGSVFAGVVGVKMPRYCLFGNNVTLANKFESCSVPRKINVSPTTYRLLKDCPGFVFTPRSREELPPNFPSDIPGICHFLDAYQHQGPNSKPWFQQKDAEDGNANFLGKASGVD
Experimental: Soluble guanylate cyclase (sGC) converts on stimulation GTP into cGMP and pyrophosphate (PPi). PPi is detected with the aid of the assay described below. The signal produced in the assay increases as the reaction progresses and serves as a measure of the sGC enzyme activity under the given stimulation.
To carry out the assay, 29 μl of enzyme solution [0-10 nM soluble guanylate cyclase (prepared according to Honicka et al., J. Mol. Med. 77, 14-23 (1999)) in 50 mM TEA, 2 mM MgCl2, 0.1% BSA (fraction V), 0.005% Brij®, pH 7.5] are initially introduced into a microplate, and 1 μl of the substance to be tested (as a serially diluted solution in DMSO) is added. The mixture is incubated at room temperature for 10 min. Then 20 μl of detection mix [1.2 nM Firefly Luciferase (Photinus pyralis luciferase, Promega), 29 μM dehydroluciferin (prepared according to Bitler & McElroy, Arch. Biochem. Biophys. 72, 358 (1957)), 122 μM luciferin (Promega), 153 μM ATP (Sigma) and 0.4 mM DTT (Sigma) in 50 mM TEA, 2 mM MgCl2, 0.1% BSA (fraction V), 0.005% Brij®, pH 7.5] are added. The enzyme reaction is started by adding 20 μl of substrate solution [1.25 mM guanosine 5′-triphosphate (Sigma) in 50 mM TEA, 2 mM MgCl2, 0.1% BSA (fraction V), 0.005% Brij®, pH 7.5] and measured continuously in a luminometer. The extent of the stimulation by the substance to be tested can be determined relative to the signal of the unstimulated reaction.
The activation of heme-free guanylate cyclase is examined by addition of 25 μM of 1H-1,2,4-oxadiazolo[4,3-a]quinoxalin-1-one (ODQ) to the enzyme solution and subsequent incubation for 30 minutes and compared to the stimulation of the native enzyme.

Heme-containing sGC = biological target: T2, Heme-containing sGC (Rattus norvegicus, UniProt P20595); assay: Stimulation of recombinant soluble guanylate cyclase in vitro, heme-containing enzyme
T2 construct: made in house; host or cells: baculovirus/Sf9 insect cells
T2 sequence (P20595 1-619): T1 sequence (P20595 1-619)
T2 sequence (P19686 1-690 partner): T1 sequence (P19686 1-690 partner)
Text: Hoenicka, E. M. Becker, H. Apeler, T. Sirichoke, H. Schroeder, R. Gerzer and J.-P. Stasch, “Purified soluble guanylyl cyclase expressed in a baculovirus/Sf9 system: Stimulation by YC-1, nitric oxide, and carbon oxide”, J. Mol. Med. 77 (1999), 14-23. The heme-free guanylate cyclase is obtained by adding Tween 20 to the sample buffer (0.5% in the final concentration).
(§1) The activation of sGC by a test substance is reported as n-fold stimulation of the basal activity.

Heme-free sGC = biological target: T3, Heme-free sGC (Rattus norvegicus, UniProt P20595); assay: Stimulation of recombinant soluble guanylate cyclase in vitro, heme-free enzyme
T3 construct: made in house; host or cells: baculovirus/Sf9 insect cells
T3 sequence (P20595 1-619): T1 sequence (P20595 1-619)
T3 sequence (P19686 1-690 partner): T1 sequence (P19686 1-690 partner)
Experimental: Investigations on the stimulation of recombinant soluble guanylate cyclase (sGC) by the compounds according to the invention with and without sodium nitroprusside, and with and without the heme-dependent sGC inhibitor 1H-1,2,4-oxadiazolo-(4,3a)-quinoxalin-1-one (ODQ) are carried out by the method described in detail in the following reference: M. Hoenicka, E. M. Becker, H. Apeler, T. Sirichoke, H. Schroeder, R. Gerzer and J.-P. Stasch, “Purified soluble guanylyl cyclase expressed in a baculovirus/Sf9 system: Stimulation by YC-1, nitric oxide, and carbon oxide”, J. Mol. Med. 77 (1999), 14-23. The heme-free guanylate cyclase is obtained by adding Tween 20 to the sample buffer (0.5% in the final concentration).
as §1

MEC (minimum effective concentration), activating action at the sGC enzyme [1]: 51 nM | Stimulation (n-fold) of heme-containing sGC, Basal (Heme-containing sGC; 0.1 μM Example 1): 1.5 n-fold | Stimulation (n-fold) of heme-containing sGC, +0.1 μM DEA/NO (Heme-containing sGC; 0.1 μM Example 1 + 0.1 μM DEA/NO): 21.9 n-fold | Stimulation (n-fold) of heme-containing sGC, +10 μM ODQ (Heme-containing sGC; 0.1 μM Example 1 + 10 μM ODQ): 3.0 n-fold | Stimulation (n-fold) of heme-containing sGC, Basal (Heme-containing sGC; 1 μM Example 1): 1.4 n-fold | Stimulation (n-fold) of heme-containing sGC, +0.1 μM DEA/NO (Heme-containing sGC; 1 μM Example 1 + 0.1 μM DEA/NO): 19.3 n-fold | Stimulation (n-fold) of heme-containing sGC, +10 μM ODQ (Heme-containing sGC; 1 μM Example 1 + 10 μM ODQ): 3.7 n-fold | Stimulation (n-fold) of heme-containing sGC, Basal (Heme-containing sGC; 10 μM Example 1): 2.6 n-fold | Stimulation (n-fold) of heme-containing sGC, +0.1 μM DEA/NO (Heme-containing sGC; 10 μM Example 1 + 0.1 μM DEA/NO): 20.0 n-fold | Stimulation (n-fold) of heme-containing sGC, +10 μM ODQ (Heme-containing sGC; 10 μM Example 1 + 10 μM ODQ): 10.3 n-fold | Stimulation (n-fold) of heme-containing sGC, Basal (Heme-containing sGC; 100 μM Example 1): 14.0 n-fold | Stimulation (n-fold) of heme-containing sGC, +0.1 μM DEA/NO (Heme-containing sGC; 100 μM Example 1 + 0.1 μM DEA/NO): 37.8 n-fold | Stimulation (n-fold) of heme-containing sGC, +10 μM ODQ (Heme-containing sGC; 100 μM Example 1 + 10 μM ODQ): 46.6 n-fold | Effect of combination with the NO donor DEA/NO on sGC stimulation (Heme-containing sGC; combination with DEA/NO, heme-containing sGC): no synergistic effect | Effect of the heme-dependent sGC inhibitor ODQ on sGC activation (Heme-containing sGC; with ODQ, heme-containing sGC, effect is in fact increased): not blocked | Stimulation (n-fold) of heme-free sGC, Basal (Heme-free sGC; 0.1 μM Example 1): 1.4 n-fold | Stimulation (n-fold) of heme-free sGC, Basal (Heme-free sGC; 1 μM Example 1): 1.7 n-fold | Stimulation (n-fold) of heme-free sGC, Basal (Heme-free sGC; 10 μM Example 1): 8.4 n-fold | Stimulation (n-fold) of heme-free sGC, Basal (Heme-free sGC; 100 μM Example 1): 111.8 n-fold
SMILES: O=C(NCCCCC1(C(=O)O)CC1)C(c1ccc(CN2N=C(c3ccccc3)OCC2=O)cc1)C1CCCC1 (single isomer, unassigned; (+)) [Example 1, (+)-1-(4-{[2-cyclopentyl-2-{4-[(5-oxo-2-phenyl-5,6-dihydro-4H-1,3,4-oxadiazin-4-yl)methyl]phenyl}-acetyl]amino}butyl)cyclopropanecarboxylic acid]
